Assay results as given in patent US20170290814A1, “METHODS OF TREATMENT OF CHOLESTASIS AND FIBROSIS” (GENFIT, priority 2016, published 2017).
Entries after “also recorded” stand apart in the source; their conditions may differ.

Tested on: TGFβ1-induced expression of α-SMA protein in human HSC
Assay: α-SMA ELISA in TGFβ1-activated human hepatic stellate cells
Type: cell-based
Settings: TGFβ1 1 ng/ml, 48 h
Experimental: Serum-deprived HSC were preincubated for 1 hour with RM-5061 before the activation with the profibrogenic cytokine TGFβ1 (1 ng/ml). After 48 hours of incubation, the α-SMA content was measured by ELISA. The obtained values were transformed into percentage inhibition over TGFβ1 control. Data are presented as mean (quadruplicates)±standard error of the mean (SEM). Statistical analyses were performed by one-way ANOVA followed by Bonferroni post-hoc tests, using Sigma Plot 11.0 software. [*: p<0.05; **: p<0.01; ***: p<0.001 (comparison versus TGFβ1 1 ng/mL group)]. The curve fitting and the calculation of half maximal inhibitory concentration (IC50) were performed with XLFit software 5.3.1.3.
Serum-deprived HSC were preincubated for 1 hour with Cpd.5 before the activation with the profibrogenic cytokine TGFβ1 (1 ng/ml). After 48 hours of incubation, the expression of α-SMA was measured by ELISA. The obtained values were transformed into percentage inhibition over TGFβ1 control. Data are presented as mean (triplicates)±standard deviation (SD). Statistical analyses were performed by one-way ANOVA followed by Bonferroni post-hoc tests, using Sigma Plot 11.0 software. [*: p<0.05; **: p<0.01; ***: p<0.001 (comparison versus TGFμ1 1 ng/mL group)]. The curve fitting and the calculation of half maximal inhibitory concentration (IC50) were performed with XLFit software 5.3.1.3.
The human primary hepatic stellate cells (hHSC) (Innoprot) were cultured in STeCM medium (ScienCell cat #5301) that was supplemented with 2% fetal bovine serum (FBS, ScienCell cat #0010), 1% penicillin/streptomycin (ScienCell cat #0503) and stellate cell growth supplement (SteCGS; ScienCell cat #5352). Cell culture flasks were coated with Poly-L Lysine (Sigma cat #P4707) for a better adherence.
The human primary hepatic stellate cells (hHSC) (Innoprot) were cultured under standard conditions, as described above. The cells were subsequently plated at a density of 2×10^4cells/well or 6,5×10^3 cells/well into 96-well or 384-well plates respectively. The next day, cell-culture medium was removed, and cells were washed with PBS (Invitrogen cat #14190). Then, hHSC were deprived for 24 hours in serum-free and SteCGS-free medium. For the treatments with compounds of formula (I), the serum-deprived hHSC were preincubated for 1 hour with the compounds followed by addition of the profibrogenic stimuli TGFβ1 (PeproTech cat #100-21, 1 ng/mL) in serum-free and SteCGS-free medium for an additional 48 hour period. At the end of treatment, the cell culture supernatants of treated-HSC were transferred into a new plate before storage at −20° C.The cells were washed with PBS (Invitrogen, cat #14190) before the addition of lysis buffer (CelLytic™ MT reagent; Sigma #C3228). Plates were then incubated for 30 min on ice using a plate shaker, before storage at −20° C.
The level of α-SMA was measured using a Sandwich ELISA. Briefly, the wells of an ELISA plate were first coated with the capture antibody (mouse monoclonal anti-ACTA2, Abnova) at 4° C. overnight. After 3 washes in PBS +0.2% Tween 20, a blocking solution consisting of PBS +0.2% BSA was added for one hour followed by another washing cycle. The cell lysates were transferred into the wells for binding to the capture antibody for a period of 2 h at room temperature. After the washing procedure, the detection antibody (biotinylated mouse monoclonal anti-ACTA2, Abnova) was added for 2 hours at room temperature followed by 3 washes. For the detection, an HRP-conjugated Streptavidin (R&D Systems cat #DY998) was first applied for 30 min at room temperature. After washing, the HRP substrate TMB (;BD, #555214) was added and incubated for 7 min at room temperature in the dark. Upon oxidation, TMB forms a water-soluble blue reaction product that becomes yellow with addition of sulfuric acid (solution stop), enabling accurate measurement of the intensity at 450 nm using a spectrophotometer. […]

| SMILES | Max % I Over TGFβ, αSMA | effect on TGFβ1-induced α-SMA level in human HSC |
| --- | --- | --- |
| CC(C)(C)[C@H](N)C(=O)Oc1ccccc1C(=O)Nc1ncc([N+](=O)[O-])s1 [RM-5061, (S)-2-(5-nitrothiazol-2-ylcarbamoyl)phenyl 2-amino-3,3-dimethylbutanoate] | 40% | dose-dependently reduced; also recorded: inhibits |
| [2H]C([2H])([2H])C(=O)Oc1ccccc1C(=O)Nc1ncc([N+](=O)[O-])s1 [Cpd.5, 2-[(5-nitro-1,3-thiazol-2-yl)carbamoyl]phenyl (d3)ethanoate] |  | inhibits |
